Literature values as cited in patent US6174886A, “Antipsychotic use of triazolo-pyridazine derivatives” (Merck Sharp & Dohme Ltd., priority 1997, dated 2001).

System: schizophrenic patients with an acute psychotic episode

CC(C)(C)OC(=O)c1ncn2c1[C@@H]1CCCN1C(=O)c1c(Br)cccc1-2 [bretazenil]
antipsychotic efficacy: moderate antipsychotic efficacy
most frequent adverse reaction reported in the study: sedation
